According to publication PMC12484987 (Scientific Reports, 2025):
Where “and” joins values, the source holds several entries; their conditions need not be identical. Identical values can stand only once. Like-named read-outs stand apart in the source and are kept apart here.

Tests used:
[1] = target: HIV-1 RT (Human immunodeficiency virus type 1 group M subtype B, UniProt P04585); details: cited from earlier work
[2] = system: T47-D (Hormone-dependent breast cancer); details: MRC-5 vs T47-D
[3] = system: A549 (Lung carcinoma); details: MRC-5 vs A549
[4] = system: HuCCA-1 (Cholangiocarcinoma); experiment: cells; details: Homo sapiens, HuCC-A1, 48 h, read-out: IC50 cytotoxic activity
[5] = system: MDA-MB-231 (Hormone-independent breast cancer); details: MRC-5 vs MDA-MB-231
[6] = system: HuCCA-1 (Cholangiocarcinoma); details: MRC-5 vs HuCCA-1
[7] = system: HL-60 (promyeloblast); details: MRC-5 vs HL-60
[8] = in vitro; details: human, MRC-5 cells (normal embryonic lung cells)
[9] = system: MOLT-3 (Acute lymphoblastic leukemia); experiment: cells; details: Homo sapiens, MOLT-3, 48 h, read-out: IC50 cytotoxic activity
[10] = system: H69AR (Lung cancer, multidrug resistance); experiment: cells; details: Homo sapiens, 48 h, read-out: IC50 cytotoxic activity
[11] = system: HepG2 (Hepatocarcinoma); experiment: cells; details: Homo sapiens, HepG2, 48 h, read-out: IC50 cytotoxic activity
[12] = system: MOLT-3 (Acute lymphoblastic leukemia); details: MRC-5 vs MOLT-3
[13] = system: HL-60 (promyeloblast); experiment: cells; details: Homo sapiens, HL-60, 48 h, read-out: IC50 cytotoxic activity
[14] = system: T47-D (Hormone-dependent breast cancer); experiment: cells; details: Homo sapiens, T47D, 48 h, read-out: IC50 cytotoxic activity
[15] = system: HeLa (Cervical carcinoma); experiment: cells; details: Homo sapiens, 48 h, read-out: IC50 cytotoxic activity
[16] = system: HepG2 (Hepatocarcinoma); details: MRC-5 vs HepG2
[17] = system: HeLa (Cervical carcinoma); details: MRC-5 vs HeLa
[18] = system: S102 (Thai liver cancer); details: MRC-5 vs S102
[19] = system: S102 (Thai liver cancer); experiment: cells; details: Homo sapiens, 48 h, read-out: IC50 cytotoxic activity
[20] = system: MDA-MB-231 (Hormone-independent breast cancer); experiment: cells; details: Homo sapiens, MDA-MB-231, 48 h, read-out: IC50 cytotoxic activity
[21] = system: H69AR (Lung cancer, multidrug resistance); details: MRC-5 vs H69AR
[22] = system: A549 (Lung carcinoma); experiment: cells; details: Homo sapiens, A549, 48 h, read-out: IC50 cytotoxic activity
[23] = system: MRC-5 (normal embryonic lung cell)

| IC50 at 48 h [8] [µM] | SMILES | Selectivity index SI = IC50(normal cell)/IC50(cancer cell line) [2] | Selectivity index SI = IC50(normal cell)/IC50(cancer cell line) [3] | IC50 [4] [µM] | Selectivity index SI = IC50(normal cell)/IC50(cancer cell line) [5] | Selectivity index SI = IC50(normal cell)/IC50(cancer cell line) [6] | Selectivity index SI = IC50(normal cell)/IC50(cancer cell line) [7] | IC50 [9] [µM] | IC50 [10] [µM] | IC50 [11] [µM] | Selectivity index SI = IC50(normal cell)/IC50(cancer cell line) [12] | IC50 [13] [µM] | IC50 [14] [µM] | IC50 [15] [µM] | Selectivity index SI = IC50(normal cell)/IC50(cancer cell line) [16] | Selectivity index SI = IC50(normal cell)/IC50(cancer cell line) [17] | Selectivity index SI = IC50(normal cell)/IC50(cancer cell line) [18] | IC50 [19] [µM] | IC50 [20] [µM] | Selectivity index SI = IC50(normal cell)/IC50(cancer cell line) [21] | also measured |
| --- | --- | --- | --- | --- | --- | --- | --- | --- | --- | --- | --- | --- | --- | --- | --- | --- | --- | --- | --- | --- | --- |
| > 119 | Cc1cc(C#N)cc(C)c1Oc1cc(Oc2c(C)cc(C#N)cc2C)c2cnccc2n1 [Compound 13b, 2,4-di-(2ˊ,6ˊ-dimethyl-4ˊ-cyanophenoxy)−1,6-naphthyridine] | > 3.49 | > 3.29 | 32.4 ± 2.7 | > 1.62 | > 3.67 | > 1.46 | 11.3 ± 2.2 | 76 ± 6.54 | 74.7 ± 13.3 | > 10.52 | 81.5 ± 19.5 | 34.1 ± 2.2 | 24.4 ± 2.5 | > 1.59 | > 4.87 | > 1.15 | 103 ± 4.4 | 73.2 ± 8.1 | > 1.56 | Percentage cytotoxicity ([23]; MRC-5, at maximum tested concentration of 50 µg/mL): 43%; toxicity toward normal embryonic lung cells (MRC-5), in words ([23]; MRC-5, up to 50 µg/mL): non-toxic; IC50 [22]: 36.1 ± 0.6 µM |
| 65.3 ± 2.1 | Cc1cc(C=O)cc(C)c1Oc1cc(Oc2c(C)cc(C=O)cc2C)c2ccncc2n1 [Compound 14a, 2,4-di-(2ˊ,6ˊ-dimethyl-4ˊ-formylphenoxy)−1,7-naphthyridine] | 2.50 | 1.07 | 21.7 ± 1.6 | 1.32 | 3.01 | 6.28 | 9.6 ± 1.1 | 52.2 ± 1.6 | 53.9 ± 3.4 | 6.80 | 10.4 ± 0.8 | 26.1 ± 5 | 12.2 ± 0.7 | 1.21 | 5.35 | 0.97 | 67.6 ± 2.2 | 49.4 ± 6.7 | 1.25 | IC50 [22]: 60.8 ± 1 µM |

Second part, the compound before the results:

| SMILES | IC50 at 48 h [8] [µM] | Selectivity index SI = IC50(normal cell)/IC50(cancer cell line) [2] | Selectivity index SI = IC50(normal cell)/IC50(cancer cell line) [3] | IC50 [4] [µM] | Selectivity index SI = IC50(normal cell)/IC50(cancer cell line) [5] | Selectivity index SI = IC50(normal cell)/IC50(cancer cell line) [6] | Selectivity index SI = IC50(normal cell)/IC50(cancer cell line) [7] | IC50 [9] [µM] | IC50 [10] [µM] | IC50 [11] [µM] | Selectivity index SI = IC50(normal cell)/IC50(cancer cell line) [12] | IC50 [13] [µM] | IC50 [14] [µM] | IC50 [15] [µM] | Selectivity index SI = IC50(normal cell)/IC50(cancer cell line) [16] | Selectivity index SI = IC50(normal cell)/IC50(cancer cell line) [17] | Selectivity index SI = IC50(normal cell)/IC50(cancer cell line) [18] | IC50 [19] [µM] | IC50 [20] [µM] | Selectivity index SI = IC50(normal cell)/IC50(cancer cell line) [21] | also measured |
| --- | --- | --- | --- | --- | --- | --- | --- | --- | --- | --- | --- | --- | --- | --- | --- | --- | --- | --- | --- | --- | --- |
| Cc1cc(C#N)cc(C)c1Oc1cc(Nc2ccc(C#N)cn2)nc2ccccc12 [4-(2’,6’-dimethyl-4’-cyanophenoxy)−2-(5’’-cyanopyridin-2’’ylamino)quinoline] |  |  |  |  |  |  |  |  |  |  |  |  |  |  |  |  |  |  |  |  | percentage inhibition against HIV-1 RT ([1]; quinolines of the previous publication): 45% and 45.1%; IC50 ([1]; read-out: IC50 against HIV-1 RT, quinolines of the previous publication): 1.22 µM |
| N#Cc1ccc(Nc2cc(Oc3ccc(C#N)cc3)c3ccccc3n2)cc1 [4-(4’-cyanophenoxy)−2-(4’’-cyanophenyl)-aminoquinoline] |  |  |  |  |  |  |  |  |  |  |  |  |  |  |  |  |  |  |  |  | percentage inhibition against HIV-1 RT ([1]; previous study): 39.71% |
| Cc1cc(C=O)cc(C)c1Oc1cc(Oc2c(C)cc(C=O)cc2C)c2cnccc2n1 [Compound 13a, 2,4-di-(2ˊ,6ˊ-dimethyl-4ˊ-formylphenoxy)−1,6-naphthyridine] | 68.1 ± 1.1 | 1.90 | 0.64 | 42.2 ± 2.6 | 1.21 | 1.61 | 3.98 | 11.3 ± 2.7 | 91.8 ± 2.9 | 60.7 ± 1 | 6.03 | 17.1 ± 2.4 | 35.9 ± 2.1 | 24.1 ± 0.4 | 1.12 | 2.83 | 0.98 | 69.8 ± 2.8 | 56.3 ± 3.7 | 0.74 | IC50 [22]: 107 ± 2.6 µM |
